The test system of assay [1] is promyelocytic leukemia cells HL60 (N-RasQ61L). Put plainly: Cell growth inhibition, suspension cells HL60. It is filed as cell-based. The following applies: Homo sapiens, HL-60, 72 hours; for inhibition at 3.2 µM: read-out: HL-60 (NRasQ61L) % inhibition at 3.2 μM (****). The method in brief:
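Suspension cells, 2 to 4×10^4 per well, cultured with compound in medium with 0.5% FBS (1% DMSO final) for 72 h at 37° C, 5% CO2. Viable cells counted with Cell Counting Reagent; inhibition calculated relative to controls.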

Assay [2] has as its target GTPγS-bound human HRasG12V / human c-Raf-1 Ras binding domain (RBD) (Homo sapiens (Human), UniProt P01112, G12V). Put plainly: Ras-Raf binding inhibition ELISA. The method in brief:
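GST-c-Raf-1 RBD (aa 50-131) immobilized on glutathione plates, then GTPγS-loaded full-length HRasG12V added with compound (final 10% DMSO), 1 h at 30 °C, pH 7.4 Tris buffer. Bound Ras detected by anti-HRas antibody (C-20 or 259) and HRP secondary, TMB read at OD450; IC50 from inhibition.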
In general terms: ELISA stands for enzyme-linked immunosorbent assay.

Assay [3] deals with acute lymphoblastic leukemia cells CCRF-CEM (K-RasG12D). Put plainly: Cell growth inhibition, suspension cells CCRF-CEM. It counts as cell-based. The following applies: Homo sapiens, 72 hours; for inhibition at 3.2 µM: read-out: CCRF-CEM (KRasG12D) % inhibition at 3.2 μM (***). On the procedure:
(§1) The cell growth inhibitory activity of the compound of the present invention on human culture cells having active-type mutation in Ras was evaluated by the below-mentioned method using suspension cancer cells {acute lymphoblastic leukemia cells CCRF-CEM (K-RasG12D), promyelocytic leukemia cells HL60 (N-RasQ61L), acute lymphoblastic leukemia cells MOLT4 (N-RasG12C), and small cell lung cancer cells SHP77 (K-RasG12V)} and adherent cancer cells {large bowel cancer cells SW480 (K-RasG12V) and large bowel cancer cell SW620 (K-RasG12V)}.
(§2) (Case of suspension cells) The cells suspended in a medium containing 0.5% (v/v) fetal bovine serum (FBS) and each compound solution (final DMSO concentration: 1%) were seeded on a 96-well plate (2 to 4×10^4 cells/well), and the resulting mixture was then cultured at 37° C. in the presence of 5% CO2 for 72 hours.
(§3) Thereafter, the number of viable cells was measured using Cell Counting Reagent (Nacalai Tesque) in accordance with the manufacturer's instructions. Inhibition by the test compound was determined according to the following equation: […]

For assay [4], the system named is large bowel cancer cell SW620 (K-RasG12V). Nature of the assay: Cell growth inhibition, adherent cells SW620. The following applies: Homo sapiens, SW-620; 3.2 μM (***), 72 hours; read-out: SW620 (KRasG12V) % inhibition at 3.2 μM (***). It is filed as cell-based. As for the experimental part: as §1
(Case of adherent cells) The cells suspended in a medium containing 10% FBS (1 to 2×10^4 cells/well) were seeded on a 96-well plate, and were then cultured at 37° C. in the presence of […]. Thereafter, the medium was exchanged with a medium containing […], to which each compound solution (final DMSO concentration: […]) had been added, and the cells were then cultured at 37° C. in the presence of […] for 72 hours.
as §3

In assay [5] the test system is small cell lung cancer cells SHP77 (K-RasG12V). Nature of the assay: Cell growth inhibition, suspension cells SHP77. The following applies: Homo sapiens, 3.2 μM (**), 72 hours, read-out: SHP77 (KRasG12V) % inhibition at 3.2 μM (**). It counts as cell-based. On the procedure:
as §1, §2, §3

[6] abbreviates: anti-HRas antibody C-20, read-out: ELISA IC50 (μM): 1st Ab_C-20.

The text below walks through data of US20250091994A1, “RAS/RAF BINDING INHIBITOR COMPOUND” (NATIONAL UNIVERSITY CORPORATION KOBE UNIVERSITY, priority 2021, published 2025).

Where two headings read alike, the source gives them in different places.

Sequence of GTPγS-bound human HRasG12V / human c-Raf-1 Ras binding domain (RBD) (P01112 whole entry G12V, the tested form may be a part): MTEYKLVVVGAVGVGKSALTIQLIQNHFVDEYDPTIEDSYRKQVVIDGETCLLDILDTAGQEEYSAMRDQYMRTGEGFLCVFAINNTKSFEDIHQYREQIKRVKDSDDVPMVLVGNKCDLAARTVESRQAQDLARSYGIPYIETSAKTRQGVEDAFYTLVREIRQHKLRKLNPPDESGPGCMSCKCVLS

What is called inhibition is the relative decrease from the control value, in per cent. By IC50 is commonly meant the concentration that gives 50% inhibition. On to `CC(=O)N1/C(=C\c2ccc3cc(CNC4CCS(=O)(=O)CC4)ccc3n2)C(=O)c2ccccc21` [Example 133], for which the inhibition at 10 µM in assay [1] (10 μM (***), read-out: HL-60 (NRasQ61L) % inhibition at 10 μM (***)) turned out to be 99%; in assay [3] (10 μM (**), read-out: CCRF-CEM (KRasG12D) % inhibition at 10 μM (**)) it was 80%. Moreover, the IC50 in assay [2] (anti-HRas antibody 259 (*), read-out: ELISA IC50 (μM): 1st Ab_259 (*)) was determined as 1.8 µM.
On to `CC(=O)N1/C(=C\c2cc(-c3cccc(-c4ccccc4)c3)c3cc(C(=O)O)ccc3n2)C(=O)c2ccccc21` [Example 152, (Z)-4-([1,1′-biphenyl]-3-yl)-2-((1-acetyl-3-oxo-indolin-2-ylidene)-methyl)quinoline-6-carboxylic acid], for which testing at 1 µM in assay [2] gave an inhibition of 53.5%. Besides, the IC50 in assay [2] (setting [6]) is 0.9 µM. The inhibition at 3.2 µM in assay [4] was 97.2%; in assay [5] it was 81.1%.
In turn, `CC(=O)N1/C(=C\c2cc(-c3cccc4ccccc34)c3cc(C(=O)O)ccc3n2)C(=O)c2ccccc21` [Example 153, (Z)-2-((1-acetyl-3-oxoindolin-2-ylidene)methyl)-4-(naphthalen-1-yl)quinoline-6-carboxylic acid] returned an inhibition at 1 µM in assay [2] of 63.1%. Further, in assay [2] (setting [6]), the IC50 was determined as 1.1 µM. In addition, the inhibition at 3.2 µM in assay [4] came out at 96.1%; in assay [5], 65.7%.
As to `CC(=O)N1/C(=C\c2cc(-c3ccc(-c4ccccc4)cc3)c3cc(C(=O)O)ccc3n2)C(=O)c2ccccc21` [Example 156, (Z)-4-([1,1′-biphenyl]-4-yl)-2-((1-acetyl-3-oxoindolin-2-ylidene)methyl)-quinoline-6-carboxylic acid], the inhibition at 1 µM in assay [2] was found to be 52%. The 50% inhibitory concentration (IC50) in assay [2] (setting [6]) amounted to 0.9 µM. The results for the inhibition at 3.2 µM in assay [4] and in assay [5] were 99% and 35.1%, respectively.
The corresponding values for `CC(=O)N1/C(=C\c2cc(-c3ccc4ccccc4c3)c3cc(C(=O)O)ccc3n2)C(=O)c2ccccc21` [Example 157, (Z)-2-((1-acetyl-3-oxoindolin-2-ylidene)methyl)-4-(naphthalen-2-yl)quinoline-6-carboxylic acid] are 61.4%, 0.6 µM, 97.5% and 49.2%.
Molecule `CC(=O)N1/C(=C\c2cc(-c3cccc(-c4ccccc4)c3)c3cc(C(=O)N4CCN(C5COC5)CC4)ccc3n2)C(=O)c2ccccc21` [Example 158, (Z)-2-((4-([1,1′-biphenyl]-3-yl)-6-(4-(oxetan-3-yl)-piperazine-1-carbonyl)quinolin-2-yl)methylene)-1-acetylindolin-3-one] registered an inhibition at 1 µM in assay [2] of 59.2%. Besides, the IC50 in assay [2] (setting [6]) is 0.8 µM. Also, the values for the inhibition at 3.2 µM in assay [4] and in assay [5] were 58.5% and 72.4%, respectively.
As to `CC(=O)N1/C(=C\c2cc(-c3cccc4ccccc34)c3cc(C(=O)N4CCN(C5COC5)CC4)ccc3n2)C(=O)c2ccccc21` [Example 159, (Z)-1-acetyl-2-((4-(naphthalen-1-yl)-6-(4-(oxetan-3-yl)piperazine-1-carbonyl)quinolin-2-yl)methylene)-indolin-3-one], in assay [2], 1 µM produced 72.7% inhibition. The IC50 in assay [2] (setting [6]) turned out to be 0.3 µM. Further, the inhibition at 3.2 µM came to 96.6% in assay [4] and 52.6% in assay [5].
In assay [2], `CC(=O)N1/C(=C\c2cc(-c3ccc4ccccc4c3)c3cc(C(=O)N4CCN(C5COC5)CC4)ccc3n2)C(=O)c2ccccc21` [Example 163, (Z)-1-acetyl-2-((4-(naphthalen-2-yl)-6-(4-(oxetan-3-yl)piperazine-1-carbonyl)quinolin-2-yl)methylene)-indolin-3-one] showed an inhibition at 1 µM of 63.8%. Further, the IC50 in assay [2] (setting [6]) amounted to 0.7 µM. Further, the inhibition at 3.2 µM in assay [4] was determined as 34.7%; in assay [5] it was 72.3%.
With `CC(=O)N1/C(=C\c2cc(-c3cccc(-c4ccccc4)c3)c3cc(CNC4CCOCC4)ccc3n2)C(=O)c2ccccc21` [Example 164, (Z)-2-((4-([1,1′-biphenyl]-3-yl)-6-(((tetrahydro-2H-pyran-4-yl)amino)-methyl)quinolin-2-yl)methylene)-1-acetylindolin-3-one], testing at 1 µM in assay [2] gave an inhibition of 48.7%. Besides, in assay [2] (setting [6]), the IC50 turned out to be 1.2 µM. The inhibition at 3.2 µM in assay [5] stood at 43.5%.
In turn, `CC(=O)N1/C(=C\c2cc(-c3cccc4cccnc34)c3cc(CNC4CCOCC4)ccc3n2)C(=O)c2ccccc21` [Example 167, (Z)-1-acetyl-2-((6-(((tetrahydro-2H-pyran-4-yl)-amino)methyl)-[4,8′-biquinolin]-2-yl)methylene)-indolin-3-one] gave an inhibition at 1 µM in assay [2] of 62.2%. In addition, the IC50 in assay [2] (setting [6]) was found to be 0.8 µM. In addition, the figures for the inhibition at 3.2 µM in assay [4] and in assay [5] were 64.4% and 65.8%, respectively.
The molecule `CC(=O)N1/C(=C\c2cc(-c3ccc(-c4ccccc4)cc3)c3cc(CNC4CCOCC4)ccc3n2)C(=O)c2ccccc21` [Example 168, (Z)-2-((4-([1,1′-biphenyl]-4-yl)-6-(((tetrahydro-2H-pyran-4-yl)amino)-methyl)quinolin-2-yl)methylene)-1-acetylindolin-3-one] had an inhibition at 1 µM in assay [2] of 48.4%. Further, in assay [2] (setting [6]), the IC50 was 1.3 µM. Besides, the inhibition at 3.2 µM in assay [5] was found to be 53.1%.
`CC(=O)N1/C(=C\c2cc(-c3ccc4ccccc4c3)c3cc(CNC4CCOCC4)ccc3n2)C(=O)c2ccccc21` [Example 169, (Z)-1-acetyl-2-((4-(naphthalen-2-yl)-6-(((tetrahydro-2H-pyran-4-yl)-amino)methyl)-quinolin-2-yl)-methylene)indolin-3-one] had an inhibition at 1 µM in assay [2] of 52.4%. Moreover, the IC50 in assay [2] (setting [6]) came to 0.9 µM. Also, the inhibition at 3.2 µM in assay [4] was 35.1%; in assay [5] it was 51.5%.
`CC(=O)N1/C(=C\c2cc(-c3nccn3C)c3cc(C(=O)N4CCOCC4)ccc3n2)C(=O)c2ccccc21` [Example 180, (Z)-1-acetyl-2-((4-(1-methyl-1H-imidazol-2-yl)-6-(morpholine-4-carbonyl)quinolin-2-yl)methylene)-indolin-3-one] came in with an inhibition at 1 µM in assay [2] of 43.7%. Further, in assay [2] (setting [6]), the IC50 amounted to 1.5 µM. For the same molecule, the inhibition at 3.2 µM in assay [5] is 69.2%.
The corresponding values for `CC(=O)N1/C(=C\c2cc(-c3cnccn3)c3cc(C(=O)N4CCOCC4)ccc3n2)C(=O)c2ccccc21` [Example 194, (Z)-1-acetyl-2-((6-(morpholine-4-carbonyl)-4-(pyrazin-2-yl)-quinolin-2-yl)-methylene)indolin-3-one] are 55.4%, 0.9 µM and 58.3%.
With `CC(=O)N1/C(=C\c2nc3ccc(C(=O)N4CCOCC4)cc3cc2-c2cnn(C)c2)C(=O)c2ccccc21` [Example 198, (Z)-1-acetyl-2-((3-(1-methyl-1H-pyrazol-4-yl)-6-(morpholine-4-carbonyl)quinolin-2-yl)methylene)-indolin-3-one], the figures for the inhibition at 3.2 µM in assay [1], in assay [4] and in assay [3] were 75.1%, 30.4% and 68.7%, respectively.
In the case of `CC(=O)N1/C(=C\c2nc3ccc(C(=O)O)cc3cc2-c2cccc3ccccc23)C(=O)c2ccccc21` [Example 202, (Z)-2-((1-acetyl-3-oxoindolin-2-ylidene)methyl)-3-(naphthalen-1-yl)-quinoline-6-carboxylic acid], the inhibition at 3.2 µM in assay [4] is 96.6%; in assay [5] it was 63.6%.
Regarding `CC(=O)N1/C(=C\c2nc3ccc(-c4nnn[nH]4)cc3cc2-c2cccc3ccccc23)C(=O)c2ccccc21` [Example 214, (Z)-1-acetyl-2-((3-(naphthalen-1-yl)-6-(1H-tetrazol-5-yl)quinolin-2-yl)methylene)-indolin-3-one], the inhibition at 3.2 µM in assay [1] came to 36.7%; in assay [4] it was 92.2%; in assay [3], 96%. The IC50 in assay [2] (setting [6]) turned out to be 28.9 µM.
